31 compounds from patent US5138069A (E. I. Du Pont de Nemours and Company, priority 1988, dated 1992) can be followed below.

pIC50: −log10 of the molar value. Where a name gives a salt, the structure may show the parent alone. Read-outs that look alike come from different tables or passages of the source.

The target in assay [1] is AII receptor. Kind of assay: Angiotensin II receptor binding (displacement of 3H-AII). The settings on record: read-out: Angiotensin II Receptor Binding IC50, rat adrenal cortical microsomes, 2 nM 3H-AII, 1 hour, room temperature. In a few lines: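 The receptor source was rat adrenal cortical microsomes in Tris buffer, incubated with 2 nM ³H-AII plus or minus test compound for 1 h at room temperature. Bound and free ligand were separated by rapid filtration on glass-fibre filters. Filter-bound ³H-AII was counted by scintillation.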

Assay [2] deals with Renal Hypertensive Rats. Kind of assay: Antihypertensive effects in renal hypertensive rats. Type of assay: in vivo. The settings on record: Rattus norvegicus; for minimal effective dose at 10 mg/kg / minimal effective dose at 100 mg/kg: Table 25; for minimal effective dose at 10 mg/kg / minimal effective dose at 3 mg/kg: intravenous; for minimal effective dose at 10 mg/kg: 10 mg/kg or less; for minimal effective dose at 100 mg/kg / minimal effective dose at 30 mg/kg: oral; for minimal effective dose at 100 mg/kg: 100 mg/kg or less; for minimal effective dose at 30 mg/kg / minimal effective dose at 3 mg/kg: Table 26. The gist of the method:
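Renal hypertensive rats (renin-driven AII elevation) dosed orally at 100 mg/kg and/or i.v. via jugular cannula at 10 mg/kg; a second set used 30 mg/kg oral and 3 mg/kg i.v. Arterial pressure recorded continuously via carotid cannula and compared with pretreatment levels.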

[3] abbreviates: Table 25, tested as sodium salt.

Consider `CCCCc1nc(Cl)c(CNC(=O)Nc2cccc3ccccc23)n1Cc1ccc(-c2ccccc2C(=O)O)cc1` [Example 165, 2-n-Butyl-1-[(2'-carboxybiphenyl-4-yl)methyl]-4-chloro-5-(1-naphthylaminocarbonylaminomethyl)-imidazole], for which the pIC50 in assay [1] (setting [3]) is 5.52. In assay [2] (tested as sodium salt), the minimal effective dose at 10 mg/kg was less than 10 mg/kg and the minimal effective dose at 100 mg/kg is greater than 100 mg/kg.

As to `CCCCc1nc(C#N)c(C#N)n1Cc1ccc(NC(=O)c2ccccc2NS(=O)(=O)C(F)(F)F)cc1` [Example 75, 2-Butyl-4,5-dicyano-1-[4-((N-trifluoromethanesulfonyl)anthranilamido)-benzyl]imidazole], the pIC50 in assay [1] (setting [3]) is 5.12. In assay [2] (tested as sodium salt), the minimal effective dose at 10 mg/kg was less than 10 mg/kg and the minimal effective dose at 100 mg/kg was less than 100 mg/kg.

`CCCCc1nc(C(F)(F)F)c(C(=O)OCC)n1Cc1ccc(-c2ccccc2-c2nnn[nH]2)cc1` [Example 140I]: the pIC50 in assay [1] (Table 25) is 7.28. Moreover, in assay [2], the minimal effective dose at 10 mg/kg was less than 10 mg/kg and the minimal effective dose at 100 mg/kg is less than 100 mg/kg.

`O=C(O)c1ccccc1-c1ccc(Cn2c(CO)cnc2SCC2CC2)cc1` [Example 124]: the pIC50 in assay [1] (Table 25) was 5.74. In assay [2], this compound yielded a minimal effective dose at 10 mg/kg of less than 10 mg/kg and a minimal effective dose at 100 mg/kg greater than 100 mg/kg.

Take `CCCCc1nc(CO)c(Cl)n1Cc1ccc(-c2ccccc2C(=O)O)cc1` [Example 95]: the pIC50 in assay [1] (Table 25) is 5.92. Further, in assay [2], the minimal effective dose at 10 mg/kg was less than 10 mg/kg and the minimal effective dose at 100 mg/kg is greater than 100 mg/kg.

As to `CCCCc1nc(Cl)c(/C=C/C(C)O)n1Cc1ccc(-c2ccccc2C(=O)OC)cc1` (stereo not drawn) [Example 229, 4-[1-(2'-Carbomethoxybiphenyl-4-yl)methyl-2-butyl-4-chloroimidazol-5-yl]-3-buten-2-ol, E isomer], the negative-log IC50 (pIC50) in assay [1] (Table 25) was 5.68. In assay [2], this compound came in with a minimal effective dose at 10 mg/kg of less than 10 mg/kg and a minimal effective dose at 100 mg/kg of less than 100 mg/kg.

`CCCCCCCc1nccn1Cc1ccc(NC(=O)c2ccccc2C(=O)O)cc1` [Example 67]: the pIC50 in assay [1] (Table 25) was 5.96. Also, in assay [2], the minimal effective dose at 10 mg/kg was less than 10 mg/kg and the minimal effective dose at 100 mg/kg was greater than 100 mg/kg.

On to `CCCCc1nc(C(F)(F)F)c(C=O)n1Cc1ccc(-c2ccccc2-c2nnn[nH]2)cc1` [Example 133], for which the pIC50 in assay [1] (Table 25) is 7.44. In assay [2], this compound displayed a minimal effective dose at 10 mg/kg of less than 10 mg/kg and a minimal effective dose at 100 mg/kg of less than 100 mg/kg.

Turning to `CCCc1nccn1Cc1ccc(NC(=O)c2ccccc2C(=O)O)cc1` [Example 63], the pIC50 in assay [1] (setting [3]) is 5.43. Besides, the minimal effective dose at 100 mg/kg in assay [2] (tested as sodium salt) is greater than 100 mg/kg.

Regarding `CCCc1nc(C(F)(F)C(F)(F)F)c(C=O)n1Cc1ccc(-c2ccccc2C(=O)O)cc1` [Example 140B], the pIC50 in assay [1] (Table 26) was 6.80. For the same compound, the minimal effective dose at 30 mg/kg in assay [2] is less than 30 mg/kg.

As for `CCCCc1nc(Cl)c(CCC(=O)O)n1Cc1ccc(-c2ccccc2C(=O)O)cc1` [Example 264], the pIC50 in assay [1] (Table 25) was 6.60. Also, in assay [2], the minimal effective dose at 10 mg/kg is less than 10 mg/kg and the minimal effective dose at 100 mg/kg is less than 100 mg/kg.

Consider `CCCc1nc(C(F)(F)F)c(C=O)n1Cc1ccc(-c2ccccc2C(=O)O)cc1` [Example 140A], for which, in assay [1] (Table 26), the pIC50 is 6.41. This compound registered a minimal effective dose at 30 mg/kg in assay [2] of less than 30 mg/kg.

With `CCCCc1nc(Cl)c(CO)n1Cc1ccc(-c2ccccc2-c2nn[nH]c2C(=O)OC)cc1` [Example 338, 2-n-Butyl-4-chloro-1-[(2'-(5-carbomethoxy-1,2,3-triazol-4-yl)biphenyl-4-yl)methyl]-5-hydroxymethylimidazole], the pIC50 in assay [1] (Table 26) was 6.59. In assay [2], the minimal effective dose at 3 mg/kg was greater than 3 mg/kg and the minimal effective dose at 30 mg/kg is greater than 30 mg/kg.

Turning to `CCCCc1nc(Cl)c(CO)n1Cc1ccc(-c2ccccc2-c2n[nH]c(C(F)(F)F)n2)cc1` [Example 340, 2-n-Butyl-4-chloro-5-hydroxymethyl-1-[(2'-(5-trifluoromethyl-1,2,4-triazol-3-yl)biphenyl-4-yl)methyl]imidazole], in assay [1] (Table 26), the pIC50 is 6.43. Also, in assay [2], the minimal effective dose at 3 mg/kg is less than 3 mg/kg and the minimal effective dose at 30 mg/kg is less than 30 mg/kg.

As for `CCCCc1nc(Cl)c(CC(=O)OC)n1Cc1ccc(NC(=O)c2cccc(C)c2NS(=O)(=O)C(F)(F)F)cc1` [Example 36], in assay [1] (setting [3]), the pIC50 was 6.72. In assay [2] (tested as sodium salt), the minimal effective dose at 10 mg/kg is less than 10 mg/kg and the minimal effective dose at 100 mg/kg was greater than 100 mg/kg.

As for `CCCc1nc(C)c(CO)n1Cc1ccc(-c2ccccc2C(=O)O)cc1` [Example 321, 1-[(2'-Carboxybiphenyl-4-yl)methyl]-5-hydroxymethyl-4-methyl-2-propylimidazole.hydrochloride], the pIC50 in assay [1] (Table 26) is 5.74. Moreover, in assay [2], the minimal effective dose at 3 mg/kg is less than 3 mg/kg and the minimal effective dose at 30 mg/kg was greater than 30 mg/kg.

Take `CCCCc1nc(Cl)c(CO)n1Cc1ccc(NC(=O)c2ccccc2NS(=O)(=O)C(F)(F)F)cc1` [Example 53B]: in assay [1] (Table 25), the pIC50 was 6.44. In assay [2], the minimal effective dose at 10 mg/kg was less than 10 mg/kg.

With `CCCCc1nc(Cl)c(CO)n1Cc1ccc(-c2ccccc2C(=O)NO)cc1` [Example 182], the pIC50 in assay [1] (Table 25) is 5.39. In addition, in assay [2], the minimal effective dose at 10 mg/kg is less than 10 mg/kg and the minimal effective dose at 100 mg/kg was greater than 100 mg/kg.

As to `CCCCc1nc(Cl)c(C=NNS(=O)(=O)c2ccccc2)n1Cc1ccc(-c2ccccc2-c2nnn[nH]2)cc1` [Example 327, 2-n-Butyl-4-chloro-1-[(2'-(1H-tetrazol-5-yl)biphenyl-4-yl)methyl]-imidazole-5-carboxaldehyde, benzenesulfonylhydrazone], the pIC50 in assay [1] (Table 26) is 6.18. In assay [2], this compound showed a minimal effective dose at 3 mg/kg greater than 3 mg/kg and a minimal effective dose at 30 mg/kg greater than 30 mg/kg.

For `CCCCc1nc(Cl)c(/C=C/CO)n1Cc1ccc(NC(=O)c2ccccc2C(=O)O)cc1` [Example 227, 3-[1-(4-(2-Carboxybenzamido)-benzyl)-2-butyl-4-chloroimidazol-5-yl]-propen-1-ol, E isomer], the pIC50 in assay [1] (Table 25) is 6.96. Moreover, the minimal effective dose at 10 mg/kg in assay [2] was less than 10 mg/kg.

`CCCCc1nc(Cl)c(CC(C)C(=O)OC(C)C)n1Cc1ccc(NC(=O)c2ccccc2C(=O)O)cc1` (stereo not shown) [Example 246]: in assay [1] (Table 25), the pIC50 is 6.92. This compound also returned a minimal effective dose at 10 mg/kg in assay [2] of less than 10 mg/kg.

As for `CCCCc1nc(Cl)c(/C=C/c2ccccc2)n1Cc1ccc(NC(=O)c2ccccc2C(=O)O)cc1` [Example 230, 1-[4-(2-Carboxybenzamido)-benzyl]-2-butyl-4-chloro-5-(2-phenylethen-1-yl)imidazole, E isomer], the negative-log IC50 (pIC50) in assay [1] (Table 25) was 5.80. The compound further displayed a minimal effective dose at 10 mg/kg in assay [2] of less than 10 mg/kg.

As for `CCCCc1nc(Cl)c(COC)n1Cc1ccc(C(=O)Nc2cccc(C)c2C(=O)O)cc1` [Example 80], the pIC50 in assay [1] (setting [3]) was 6.30. Moreover, in assay [2] (tested as sodium salt), the minimal effective dose at 10 mg/kg is less than 10 mg/kg and the minimal effective dose at 100 mg/kg was less than 100 mg/kg.

For `CCCCc1nc(C(=O)N2CCN(c3ccccc3OC)CC2)c(Cl)n1Cc1ccc(-c2ccccc2-c2nnn[nH]2)cc1` [Example 348], the pIC50 in assay [1] (Table 26) is 5.89. In assay [2], this compound came in with a minimal effective dose at 3 mg/kg of less than 3 mg/kg and a minimal effective dose at 30 mg/kg greater than 30 mg/kg.

On to `CCCc1nc(C(F)(F)C(F)(F)C(F)(F)C(F)(F)C(F)(F)C(F)(F)F)c(CO)n1Cc1ccc(-c2ccccc2C(=O)O)cc1` [Example 124I], for which the negative-log IC50 (pIC50) in assay [1] (Table 26) was 5.60. For the same compound, in assay [2], the minimal effective dose at 3 mg/kg was less than 3 mg/kg and the minimal effective dose at 30 mg/kg is greater than 30 mg/kg.

Consider `CCCCc1nc(C(F)(F)F)c(CO)n1Cc1ccc(-c2ccccc2C(=O)O)cc1` [Example 92, 1-[(2'-carboxybiphenyl-4-yl)-methyl]-2-butyl-5-hydroxymethyl-4-trifluoromethylimidazole], for which the pIC50 in assay [1] (Table 25) is 7.21. This compound gave a minimal effective dose at 10 mg/kg in assay [2] of less than 10 mg/kg.

Consider `CCCCc1nc(Cl)c(CO)n1Cc1ccc(-c2ccccc2CC(=O)O)cc1` [Example 175, 2-n-Butyl-1-[(2'-(carboxymethyl)biphenyl-4-yl)methyl]-4-chloro-5-(hydroxymethyl)-imidazole.dicyclohexylamine salt], for which the negative-log IC50 (pIC50) in assay [1] (setting [3]) was 5.82. In assay [2] (tested as sodium salt), the minimal effective dose at 10 mg/kg was less than 10 mg/kg and the minimal effective dose at 100 mg/kg is greater than 100 mg/kg.

With `CCCCc1nc(Cl)c(CO)n1Cc1ccc(-c2c(C#N)cccc2-c2nnn[nH]2)cc1` [Example 343, 2-n-Butyl-4-chloro-1-[(2'-cyano-6'-(1H-tetrazol-5-yl)biphenyl-4-yl)methyl]-5-hydroxymethylimidazole], in assay [1] (Table 26), the pIC50 is 6.29. Also, in assay [2], the minimal effective dose at 3 mg/kg is less than 3 mg/kg and the minimal effective dose at 30 mg/kg was greater than 30 mg/kg.

Take `CCCc1nc(C(F)(F)F)c(C(=O)O)n1Cc1ccc(-c2ccccc2-c2nn[nH]n2)cc1` [Example 265A]: the pIC50 in assay [1] (Table 26) is 5.96. In assay [2], this compound gave a minimal effective dose at 3 mg/kg of less than 3 mg/kg and a minimal effective dose at 30 mg/kg of less than 30 mg/kg.

For `CCCCc1nc(Cl)c(C(O)c2ccccc2)n1Cc1ccc(-c2ccccc2-c2nn[nH]n2)cc1` (stereo not drawn) [Example 317A, α-[2-n-butyl-4-chloro-1-[(2'-(1H-tetrazol-5-yl)biphenyl-4-yl)methyl]imidazol-5-yl]-α-phenylmethanol], the pIC50 in assay [1] (Table 26) is 6.39. In assay [2], this compound gave a minimal effective dose at 3 mg/kg of less than 3 mg/kg and a minimal effective dose at 30 mg/kg greater than 30 mg/kg.

Take `CCCCc1nc(Cl)c(Cc2nnn[nH]2)n1Cc1ccc(C(=O)c2ccccc2C(=O)O)cc1` [Example 208, 2-Butyl-1-[4-(2-carboxybenzoyl)benzyl]-4-chloro-5-[(1H-tetrazol-5-yl)methyl]imidazole]: in assay [1] (setting [3]), the pIC50 is 6.48. In addition, in assay [2] (tested as sodium salt), the minimal effective dose at 10 mg/kg is less than 10 mg/kg and the minimal effective dose at 100 mg/kg was greater than 100 mg/kg.
